# Data reported in patent US10287616B2, “Label free biosensors, gram-negative bacteria detection, and real-time and end point determination of antibiotic effects” (priority 2015, dated 2019).
# Several values for one entry are separate records, joined by “and”; a condition that tells them apart may be missing. Equal values may be shown once. Read-outs that look alike come from different tables or passages of the source.
# How the values were obtained:
# E. coli W1485 [1] = details: for ΔR (Ω) / ΔR/R0 (%): 3 hours; for ΔF (Hz): FIG. 26
# Procedure: Experiments were also performed to study the concentration of the antibiotics and the length of the incubation time of antibiotics for their ability to kill or inhibit the growth of the bacteria. Different concentrations of each antibiotic were added to 5×10^8 cells/mL E. coli respectively, and then incubated at 37° C. and 280 rpm on the shaker. After 3 hours of incubation, 1 μL of antibiotic treated E. coli culture was added to the Con A sensor cell containing 1 mL of 10 mM HEPES buffer (pH 7.4) for QCM measurements, respectively. […] 1 μL of each antibiotic treated E. coli was taken at different incubation times (i.e., 0, 1, 2, 3 hours) and was added into the Con A senor cell containing 1 mL of 10 mM HEPES buffer (pH 7.4) for QCM measurements.
# Because antibiotics from different classes have different mechanisms of action and antibiotic effects on bacterial morphology and viability are concentration and time dependent, it was hypothesized that the ability of antibiotics to kill the bacteria or inhibit its growth may be class and concentration dependent, which will affect the interaction between the LPS and Con A sensor. To further study the effects of concentration and length of incubation time on the bactericidal activities of antibiotics, different concentration of antibiotics were added into the broth containing E. coli and incubated for different lengths of times. […] FIGS. 26D through 26F show the histogram of ΔF or ΔR changes vs antibiotics with different concentrations that are again correlated to each other with ceftriaxone showing consistent increase in resistance with increasing its concentration. This is probably due to more and more cell lysis, thereby intensifying the fluidic environment.
# To further compare the effect of concentrations on the bactericidal activities of the antibiotics, the binding kinetics between Con A sensor and E. coli were studied. The binding between Con A sensor and E. coli can be described by eq 2. [Con Aattached to gold]+[E. coli]→[E. coli/Con Aattached to gold] (2)
# The amount of the complex E. coli/Con A formed at time t after the injection is given by eqs 3 and […], where ΔMmax is the maximum binding amount of E. coli/Con A, ΔM is the measured binding amount, and t is the time after injection. τ is the relaxation time associated with E. coli binding, which is calculated from curve fittings of the ΔF during the binding process. A higher τ value means a longer binding time is required between the Con A and E. coli.
# E. coli W1485 [2] = details: for ΔF (Hz): 30 mg/L antibiotic added after E. coli attached to sensor; for ΔF (Hz) / ΔR (Ω) / ΔR/R0 (%): FIG. 25A; for ΔR (Ω) / ΔR/R0 (%): 30 mg/L antibiotic added after E. coli attached; for frequency after antibiotic addition: 2 hour period after addition, from 350, 350 and 370 Hz before addition; for reduction of binding to (LPS activity, real time analysis): 1 hour time point
# Procedure: (§1) The gold QCM electrode consisted of a thin AT-cut quartz crystal wafer with vapor deposited gold electrode on each side (10 MHz, non-polished with 1000 A gold, geometric area is 0.22 cm2, International Crystal Company). For all QCM test, the gold electrode was mounted on the side of a KeI-F cell chamber. Frequency monitoring was performed using a Maxtek RQCM quartz crystal microbalance research instrument. Baseline was recorded in 1 mL of 10 mM HEPES buffer containing 1 mM Ca^2+ and 1 mM Mn^2+. Each of the bacterial samples to be analyzed was then added into the detection sensor cell after stabilization of resonance frequency (shift less than 1 Hz·min-1). A small magnetic stir bar was used to increase the mass transfer through convection. The frequency changes (ΔF) of the QCM were monitored using a network/spectrum/impedance analyzer (Agilent 4395A) controlled by a PC via an Intel card.
# For the real time measurements, Con A sensor was mounted in a biosensor cell containing 1 mL of 10 mM HEPES buffer (pH 7.4). Real time QCM measurements were obtained for each experimental step. First, 1 μL of 5×10^8 cells/mL E. coli obtained from the stationary phase was added into the biosensor cell. When frequency reached a constant value, it was washed with 1 mL of 10 mM HEPES buffer to remove the unbound E. coli. […] The frequency changes vs time and the damping resistance vs time were recorded by QCM.
# Different types of antibiotics have differing abilities to alter the LPS properties and subsequent reduction in their binding. This can be used as an indicator for the antibiotic effects for killing the bacteria or inhibiting their growth. The biosensor ability to quantitatively measure these parameters real time was tested. For that purpose, the Con A sensor was exposed to 1 μL of 5×10^8 cells/mL E. coli to capture the bacteria via Con A-LPS binding. The unbound E. coli was removed by washing with 1 mL of 10 mM HEPES buffer.
# E. coli = details: cited from earlier work; for Previously Reported Minimum Inhibitory Concentration (MIC, mg/L): different strains
# E. coli W1485 [3] = details: for bacterial (LPS) binding reduced to, frequency shift normalized to control / ΔR (Ω) / ΔR/R0 (%): 18 hours
# Procedure: as §1
# In the end point measurement, four samples containing 2×10^5 cells/mL of E. coli obtained from log phase in fresh LB culture were prepared. […] The four samples were incubated for 18 hours, 37° C., 280 rpm on an orbital environmental shaker. Finally, 1 μL of the E. coli culture from the each prepared sample was introduced to the Con A biosensor in 1 mL of 10 mM HEPES buffer (pH 7.4) for QCM and electrochemical biosensor measurements, respectively. The sample without addition of any antibiotic was used as control.
# The concentrations used were based on the literature and current clinically used dosages. The sample without any antibiotic was used as a control. As mentioned above, E. coli W1485 was used as the model Gram-negative bacterial analyte. E. coli W1485 is a “semirough” bacterial strain in which the intact LPS core is capped by a single O-antigen subunit consisting of glucose, N-acetylglucosamine, galactose, and rhamnose in the ratio 1.8:1.0:0.7:0.6, which has been confirmed by the sodium dodecyl sulfate polyacrylamide gel electrophoresis (SDS-PAGE) method. Con A binds specifically at α-D-mannosyl and α-D-glucosyl residues (two hexoses differing only by the alcohol on carbon 2) in the terminal position of ramified structures from β-glycans (reach in α-mannose, or hybrid and biantennary glycanes complexes).
# Here the QCM frequency shift is because of the mass loading on the QCM surface due to bacterial adhesion and the change of damping resistance is a result of increasing softness of the interface which causes the damping of the oscillation wave.
# [4] = E. coli binding to Con A sensor after 1 mg/L antibiotic
# [5] = E. coli binding to Con A sensor after 10 mg/L antibiotic
# [6] = E. coli binding to Con A sensor after 30 mg/L antibiotic
SMILES,ΔR (Ω) (E. coli W1485 [1]; 1 mg/L antibiotic),ΔR/R0 (%) (E. coli W1485 [1]; 1 mg/L antibiotic),ΔR (Ω) (E. coli W1485 [1]; 10 mg/L antibiotic),ΔR/R0 (%) (E. coli W1485 [1]; 10 mg/L antibiotic),ΔR (Ω) (E. coli W1485 [1]; 30 mg/L antibiotic),ΔR/R0 (%) (E. coli W1485 [1]; 30 mg/L antibiotic),relaxation time τ (E. coli W1485 [1]; [4]) [min],relaxation time τ (E. coli W1485 [1]; [5]) [min],relaxation time τ (E. coli W1485 [1]; [6]) [min],ΔF (Hz) (E. coli W1485 [2]),ΔR (Ω) (E. coli W1485 [2]),ΔR/R0 (%) (E. coli W1485 [2]),frequency after antibiotic addition (E. coli W1485 [2]; 30 mg/L) [Hz],"reduction of binding to (LPS activity, real time analysis) (E. coli W1485 [2]; 30 mg/L) [%]","Previously Reported Minimum Inhibitory Concentration (MIC, mg/L) (E. coli) [mg/L]","ΔR (Ω) (E. coli W1485 [3]; 0.1 mg/L antibiotic, FIG. 24A)","ΔR/R0 (%) (E. coli W1485 [3]; 0.1 mg/L antibiotic, FIG. 24A)",other results
CO/N=C(\C(=O)N[C@@H]1C(=O)N2C(C(=O)O)=C(CSc3nc(=O)c(=O)[nH]n3C)CS[C@H]12)c1csc(N)n1 [ceftriaxone],16 Ω,5.2,16.5 Ω,5.4,18 Ω,5.8,15.5,18.4,22.5,−25,−2.2 Ω,−0.7,325,93,0.024 to 0.195,6 Ω,2.0,"decrease in frequency (fold of value before antibiotic) (E. coli W1485 [2]; 30 mg/L, 2 hour period after antibiotic addition): 0.93 fold; reduction of binding to (LPS activity, real time analysis) (E. coli W1485 [2]; 30 mg/L, listed as Ceftriaxone): 93%; MIC (E. coli; E. coli (47)): 0.0125 to 25 µg/mL; MIC (E. coli; E. coli (305)): 0.06 to 8 µg/mL; bacterial (LPS) binding reduced to, frequency shift normalized to control (E. coli W1485 [3]; 0.1 mg/L antibiotic): 27%; bacterial (LPS) binding reduced to, frequency shift normalized to control (E. coli W1485 [3]; 0.1 mg/L antibiotic, listed as Ceftriaxone): 27%; ΔF (Hz) (E. coli W1485 [3]; log phase E. coli incubated 18 hours, 37° C. with 0.1 mg/L antibiotic, FIG. 24A): 87 Hz"
O=C(O)c1cn(C2CC2)c2cc(N3CCNCC3)c(F)cc2c1=O [ciprofloxacin],14.5 Ω,4.7,10.5 Ω,3.4,10.6 Ω,3.5,21,23.5,23.6,–,−2.0 Ω,−0.6,320,91,0.0075 to 0.015,8 Ω,2.6,"most effective concentration to act against this bacterial strain (E. coli W1485 [1]; no big change in ΔF from 10 to 30 mg/L): 10 mg/L; reduction of binding to (LPS activity, real time analysis) (E. coli W1485 [2]; 30 mg/L, listed as Ciprofloxacin): 91%"
CN(C)[C@@H]1C(O)=C(C(N)=O)C(=O)[C@@]2(O)C(O)=C3C(=O)c4c(O)cccc4[C@@](C)(O)[C@H]3C[C@@H]12 [tetracycline],16.3 Ω,5.3,17.2 Ω,5.6,14.5 Ω,4.7,–,–,–,−20,−2.0 Ω,−0.6,350,95,–,–,–,"ΔF (Hz) (E. coli W1485 [1]; pretreated 3 hours with 10 mg/L antibiotic): 200 Hz and 212 Hz; ΔF (Hz) (E. coli W1485 [1]; pretreated 3 hours with 30 mg/L antibiotic): 160 Hz; ΔF (Hz) (E. coli W1485 [1]; stationary phase E. coli pretreated 3 hours with 1 mg/L antibiotic): 260 Hz and 262 Hz; reduction of binding to (LPS activity, real time analysis) (E. coli W1485 [2]; 30 mg/L, listed as Tetracycline): 95%; ΔR (Ω) (E. coli W1485 [3]; 10 mg/L antibiotic, FIG. 24A): 7.2 Ω; ΔR/R0 (%) (E. coli W1485 [3]; 10 mg/L antibiotic, FIG. 24A): 2.3%"
